pEC50: −log10 of the molar value. Values after ≈ are worked out from the molar mass of the structure shown.
Experiments:
[1] = Water solubility; assay type: physicochemical; details: up to
[2] = target: T1, mPiezo1 (Mus musculus, UniProt E2JF22); experiment: FLIPR GCAMP6s Ca2+ response of transfected HEK293T cells; assay type: cell-based; details: for pEC50: Boltzmann fit, vector signal subtracted
T1 construct: The full-length mPiezo1 has 2547 amino acids in each monomer; expressed in transfected cells; host or cells: HEK293T
T1 sequence (E2JF22 whole entry): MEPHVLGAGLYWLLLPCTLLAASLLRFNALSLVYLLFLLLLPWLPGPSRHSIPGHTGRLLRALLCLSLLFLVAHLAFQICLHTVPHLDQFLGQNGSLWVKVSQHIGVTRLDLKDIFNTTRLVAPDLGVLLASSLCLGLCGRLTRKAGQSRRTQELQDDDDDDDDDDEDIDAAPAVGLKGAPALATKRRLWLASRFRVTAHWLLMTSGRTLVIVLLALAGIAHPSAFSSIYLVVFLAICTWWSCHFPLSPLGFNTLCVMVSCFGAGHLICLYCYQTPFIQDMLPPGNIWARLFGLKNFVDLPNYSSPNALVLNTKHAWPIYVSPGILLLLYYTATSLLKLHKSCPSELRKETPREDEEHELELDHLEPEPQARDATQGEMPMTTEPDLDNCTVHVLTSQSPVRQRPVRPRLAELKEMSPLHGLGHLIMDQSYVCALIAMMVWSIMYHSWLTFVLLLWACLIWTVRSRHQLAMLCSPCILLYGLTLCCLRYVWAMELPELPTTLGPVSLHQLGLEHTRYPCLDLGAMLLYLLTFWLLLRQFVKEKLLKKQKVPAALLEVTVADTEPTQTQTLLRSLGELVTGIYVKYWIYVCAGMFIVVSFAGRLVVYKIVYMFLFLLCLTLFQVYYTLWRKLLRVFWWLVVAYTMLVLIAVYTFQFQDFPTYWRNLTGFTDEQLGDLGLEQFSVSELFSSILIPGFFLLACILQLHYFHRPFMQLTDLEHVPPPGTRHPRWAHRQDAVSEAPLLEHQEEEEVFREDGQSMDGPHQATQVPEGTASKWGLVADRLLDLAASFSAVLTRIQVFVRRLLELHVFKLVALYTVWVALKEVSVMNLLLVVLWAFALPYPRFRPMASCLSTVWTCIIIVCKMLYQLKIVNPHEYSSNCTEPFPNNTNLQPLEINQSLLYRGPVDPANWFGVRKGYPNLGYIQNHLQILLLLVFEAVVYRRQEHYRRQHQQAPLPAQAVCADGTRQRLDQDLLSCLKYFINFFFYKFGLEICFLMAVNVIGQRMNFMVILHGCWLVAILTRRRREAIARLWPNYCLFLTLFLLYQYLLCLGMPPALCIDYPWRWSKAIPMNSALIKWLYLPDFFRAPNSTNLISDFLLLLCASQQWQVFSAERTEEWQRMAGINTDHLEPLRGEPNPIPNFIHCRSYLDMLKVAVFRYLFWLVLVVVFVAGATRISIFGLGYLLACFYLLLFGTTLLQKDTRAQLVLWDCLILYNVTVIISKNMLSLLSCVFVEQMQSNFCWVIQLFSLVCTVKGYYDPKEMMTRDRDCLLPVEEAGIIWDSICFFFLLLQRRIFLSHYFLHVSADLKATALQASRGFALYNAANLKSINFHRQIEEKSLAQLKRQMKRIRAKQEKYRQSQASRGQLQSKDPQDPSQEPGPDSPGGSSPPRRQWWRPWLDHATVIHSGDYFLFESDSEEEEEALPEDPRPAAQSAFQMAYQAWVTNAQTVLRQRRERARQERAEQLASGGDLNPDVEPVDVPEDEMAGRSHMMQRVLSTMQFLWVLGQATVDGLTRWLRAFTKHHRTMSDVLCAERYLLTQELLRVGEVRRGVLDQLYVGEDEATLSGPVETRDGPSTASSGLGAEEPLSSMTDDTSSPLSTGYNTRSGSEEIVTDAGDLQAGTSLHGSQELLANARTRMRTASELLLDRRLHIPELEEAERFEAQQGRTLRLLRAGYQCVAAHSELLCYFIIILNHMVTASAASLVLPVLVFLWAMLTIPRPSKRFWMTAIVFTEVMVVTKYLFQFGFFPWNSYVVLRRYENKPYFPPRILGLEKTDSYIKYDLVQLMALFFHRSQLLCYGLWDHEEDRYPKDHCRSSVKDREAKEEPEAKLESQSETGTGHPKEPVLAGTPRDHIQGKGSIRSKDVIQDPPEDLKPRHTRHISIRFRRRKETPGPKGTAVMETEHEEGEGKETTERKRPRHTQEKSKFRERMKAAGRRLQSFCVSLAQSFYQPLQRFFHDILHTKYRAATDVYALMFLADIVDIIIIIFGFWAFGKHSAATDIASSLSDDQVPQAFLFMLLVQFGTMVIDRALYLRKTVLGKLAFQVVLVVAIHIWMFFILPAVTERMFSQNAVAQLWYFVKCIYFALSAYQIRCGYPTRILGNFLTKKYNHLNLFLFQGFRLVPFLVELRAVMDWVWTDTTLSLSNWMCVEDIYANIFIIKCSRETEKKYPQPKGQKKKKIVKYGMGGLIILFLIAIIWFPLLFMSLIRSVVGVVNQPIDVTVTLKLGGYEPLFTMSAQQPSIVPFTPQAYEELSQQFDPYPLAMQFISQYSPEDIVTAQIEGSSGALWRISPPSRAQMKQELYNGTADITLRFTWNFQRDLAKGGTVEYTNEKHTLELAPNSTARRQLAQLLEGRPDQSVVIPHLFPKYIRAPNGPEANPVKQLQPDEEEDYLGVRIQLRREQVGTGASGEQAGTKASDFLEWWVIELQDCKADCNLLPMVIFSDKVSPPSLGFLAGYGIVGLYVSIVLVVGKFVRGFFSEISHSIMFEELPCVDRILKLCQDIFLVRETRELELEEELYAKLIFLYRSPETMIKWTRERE
Text: Pharmacological compounds are invaluable tools for probing the structure-function relationship of ion channels. To identify specific chemical activators of Piezo channels, we have used the fluorescent imaging plate reader (FLIPR) in a 96-well format to screen about 3000 compounds for those that can evoke Ca^2+ increase in human embryonic kidney 293T (HEK293T) cells co-transfected with either mPiezo1 or mPiezo2, and the genetically encoded Ca^2+ reporter GCAMP6s (high Ca^2+ sensitivity but slow kinetics)[43]. We initially selected compounds that evoked Ca^2+ response in either Piezo1- or Piezo2-transfected cells and subsequently ruled out those nonspecific hits that caused Ca^2+ response in Piezo1-, Piezo2-, and vector-transfected cells (Fig. 2a). Eventually, we identified Jedi1 and Jedi2 as Piezo1 chemical activators, but no specific Piezo2 activators.
(§1) HEK293T cells were grown in Dulbecco’s modified Eagle medium containing 4.5 mg/ml glucose, 10% fetal bovine serum, and 1% penicillin/streptomycin. Cells were seeded in 50 μg/ml poly-D-lysine-coated 96-well plates (3 × 10^4 cells/well) and allowed to grow for about 18 h, and then co-transfected with a total of 250 ng cDNA containing Piezo1 or Piezo2 and GCaMP6s using Lipofectamine 2000 (Invitrogen, Life Technology). Two days after transfection the cells were washed with buffer containing 1× Hanks’ balanced salt solution (HBSS; 1.3 mM Ca^2+) and 10 mM HEPES (pH 7.2). The 96-well plates were then transferred to the FLIPR Tetra (Molecular Device) for monitoring the GCAMP6s fluorescence before and after addition of the compounds that were prepared in separate compound plates. For the initial screening, we screened about 3000 compounds derived from either the chemical library collected in Dr. Yu Rao’s lab, which is composed of different classes of heterocycles, including various drug scaffold or the Maybridge Ro3 Diversity Fragment Library purchased from Maybridge (Cambridge, UK), which consists of 2500 fragment compounds with a molecular weight below 350 and high rule of three compliance. Each compound was tested at a final concentration of 200 μM. Approximately 20 positive hits were selected for further testing in Piezo1-, Piezo2-, or vector-transfected cells. For subsequent characterizations, Jedi1 was purchased from the company of Alfa Aesar, while Jedi2 and Yoda1 were synthesized in the laboratories of Drs. Wei He and Liansuo Zu, respectively. See the Supplementary Experiment Procedures for the chemical synthesis. The dose response measurement by FLIPR was similar to previously described.

[3] = target: T1, mPiezo1; experiment: Whole-cell patch clamp, gap-free recording, compound puffed onto cells; assay type: cell-based; details: for compound-evoked whole-cell current: mPiezo1-mRuby2-expressing HEK293T, 1 mM Jedi1 or 30 μM Yoda1 puffed
Experimental: (§2) Protocols for HEK293T cell culture, transient transfection, and patch-clamp experiments with an Axopatch 200B amplifier (Axon Instruments) or HEKA EPC10 were essentially similar to how previously described[6],[8]. […] The extracellular solution was composed of (in mM) 133 NaCl, 3 KCl, 2.5 CaCl2, 1 MgCl2, 10 HEPES (pH 7.3 with NaOH), and 10 glucose. All experiments were carried out at room temperature. Currents were sampled at 20 kHz, filtered at 2 kHz using the Clampex 10.4 software (Axon Instruments) or Patchmaster software. Leak currents before mechanical stimulations were subtracted offline from the current traces.
Stock solutions of Jedi1 (100 mM), Jedi2 (100 mM), and Yoda1 (30 mM) were solubilized in DMSO and diluted to the desired final concentrations as indicated in the figure legends using external or internal solutions. In Figs. 3a, 5b, and 6e, the compound solutions were puffed onto the cells using a multichannel perfusion system (MPS-2, World Precision Instruments) while continuously recording using a gap-free mode. In other conditions, the compounds were directly added to the recording chamber or pipette solution, and the currents were recorded within 10 min. In Figs. 5b and 6e, we used the Piezo1-KO-HEK cell line in which the endogenous Piezo1 gene is disrupted.

[4] = test system: mPiezo1 loop deletion mutants ΔL15-16 (657-677) and ΔL19-20 (870–921); experiment: FLIPR GCAMP6s Ca2+ dose response, loop deletion mutants; assay type: cell-based, mouse; details: ΔL15-16 and ΔL19-20, FLIPR
Experimental: as §1, with “For subsequent characterizations, Jedi1 was purchased from the company of Alfa Aesar, while Jedi2 and Yoda1 were synthesized in the laboratories of Drs. Wei He and Liansuo Zu, respectively. See the Supplementary Experiment Procedures for the chemical synthesis. The dose response measurement by FLIPR was similar to previously described.” left out

[5] = test system: mPiezo1 loop deletion mutants ΔL15-16 (657-677) and ΔL19-20 (870–921); experiment: Patch clamp (chemical-, poking- and stretching-induced currents), loop deletion mutants; assay type: cell-based, mouse
Experimental: as §2
Mechanical stimulation was delivered to the cell during the patch-clamp recording at an angle of 80° using a fire-polished glass pipette (tip diameter 3–4 μm) as previously described[5],[6]. […] A series of mechanical steps in 1 μm increments was applied every 20 s and currents were recorded at a holding potential of −70 mV. […] In the step-wise poking experiment, the patch was readily lost when the cell was broken at the end of the poking. […]
Stretch-activated currents were recorded in the cell-attached patch-clamp configuration as previously described. […] Stretch-activated channels were recorded at a holding potential of −80 mV with pressure steps from 0 to −100 mm Hg (−10 mm Hg increments), and 4–11 recording traces were averaged per cell for analysis. […]

[6] = target: T1, mPiezo1; experiment: Cell-attached patch with pressure clamp (stretch-activated currents); assay type: cell-based; details: absence of externally applied pressure, compound in pipette, vs DMSO

SMILES | solubility [1] [µM] | Hill coefficient [2] | pEC50 [2] | onset and decay of evoked currents relative to Yoda1-induced currents ([3]; 1 mM Jedi1 vs 30 μM Yoda1) | compound-evoked whole-cell current [3] | Ca2+ response of loop deletion mutants [4] | whole-cell currents or potentiation of poking- or stretching-induced currents in loop deletion mutants ([5]; ΔL15-16 and ΔL19-20 mutant-transfected cells) | fold change of NPo [6] [fold] | potentiation of stretching-induced currents of loop deletion mutants ([5]; ΔL15-16 and ΔL19-20, −80 mV)
Cc1oc(-c2ccccc2)cc1C(=O)O [Jedi1] | ~2000 (≈ 404 µg/mL) | ~ 1.5 | ~3.70 | more rapid onset and faster decay | evoked inward currents | no dose-dependent Ca^2+ responses | failed to elicit | 4.7 ± 1.4 | 
Cc1oc(-c2cccs2)cc1C(=O)O [Jedi2] | ~2000 (≈ 416 µg/mL) | 1.6 | 3.80 |  |  | no dose-dependent Ca^2+ responses |  |  | 
Clc1cccc(Cl)c1CSc1nnc(-c2cnccn2)s1 [Yoda1, reference compound] |  |  |  |  | evoked inward currents |  |  | 3.1 ± 1.3 | failed to potentiate
